Source: patent US20100099561A1, “HETEROBICYCLIC ALKYLTHIO-BRIDGED ISOXAZOLINES” (E.I. DU PONT DE NEMOURS AND COMPANY, priority 2008, published 2010)

Assays:
Type in all cases: in vivo
[1] = system: velvetleaf (Abutilon theophrasti); assay: Test A preemergence, velvetleaf; conditions: 0 to 100 scale (0 no effect, 100 complete control)
Outline: (§1)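 Visual injury scored 0 (no effect) to 100 (complete control) against untreated plants roughly ten days after greenhouse treatment. Postemergence sprays hit one- to two-leaf plants 2–10 cm high; preemergence was a directed spray onto loam–sand soil, both using surfactant-containing solvent formulations.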

[2] = system: barnyardgrass (Echinochloa crus-galli); assay: Test B flooded paddy test, barnyardgrass; conditions: Flood
Outline: (§2)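 2-leaf plants; pots flooded 3 cm above soil; compound added to paddy water; depth maintained. Greenhouse 13–15 d. Visual rating vs controls, 0 (no effect) to 100 (complete control); dash = no result.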

[3] = system: large crabgrass (Digitaria sanguinalis); assay: Test A postemergence, large crabgrass; conditions: 0 to 100 scale (0 no effect, 100 complete control)
Outline: as §1

[4] = system: umbrella sedge (Cyperus difformis); assay: Test B flooded paddy test, umbrella sedge; conditions: Flood, scale 0 to 100
Outline: as §2

corn (Zea mays) [5] = assay: Test A postemergence, corn; conditions: 0 to 100 scale (0 no effect, 100 complete control)
Outline: as §1

[6] = system: ducksalad (Heteranthera limosa); assay: Test B flooded paddy test, ducksalad; conditions: Flood, scale 0 to 100
Outline: as §2

[7] = system: wheat (Triticum aestivum); assay: Test A postemergence, wheat; conditions: 0 to 100 scale (0 no effect, 100 complete control)
Outline: as §1

[8] = system: giant foxtail (Setaria faberi); assay: Test A postemergence, giant foxtail; conditions: 0 to 100 scale (0 no effect, 100 complete control)
Outline: as §1

[9] = system: large crabgrass (Digitaria sanguinalis); assay: Test A preemergence, large crabgrass; conditions: 0 to 100 scale (0 no effect, 100 complete control)
Outline: as §1

[10] = system: velvetleaf (Abutilon theophrasti); assay: Test A postemergence, velvetleaf; conditions: 0 to 100 scale (0 no effect, 100 complete control)
Outline: as §1

[11] = system: pigweed (Amaranthus retroflexus); assay: Test A postemergence, pigweed; conditions: 0 to 100 scale (0 no effect, 100 complete control)
Outline: as §1

corn (Zea mays) [12] = assay: Test A preemergence, corn; conditions: 0 to 100 scale (0 no effect, 100 complete control)
Outline: as §1

[13] = system: wheat (Triticum aestivum); assay: Test A preemergence, wheat; conditions: 0 to 100 scale (0 no effect, 100 complete control)
Outline: as §1

[14] = system: pigweed (Amaranthus retroflexus); assay: Test A preemergence, pigweed; conditions: 0 to 100 scale (0 no effect, 100 complete control)
Outline: as §1

[15] = system: giant foxtail (Setaria faberi); assay: Test A preemergence, giant foxtail; conditions: 0 to 100 scale (0 no effect, 100 complete control)
Outline: as §1

[16] = system: barnyardgrass (Echinochloa crus-galli); assay: Test A preemergence, barnyardgrass; conditions: 0 to 100 scale (0 no effect, 100 complete control)
Outline: as §1

[17] = system: morningglory (Ipomoea spp.); assay: Test A preemergence, morningglory; conditions: 0 to 100 scale (0 no effect, 100 complete control)
Outline: as §1

[18] = system: barnyardgrass (Echinochloa crus-galli); assay: Test A postemergence, barnyardgrass; conditions: 0 to 100 scale (0 no effect, 100 complete control)
Outline: as §1

rice (Oryza sativa) = assay: Test B flooded paddy test, rice; conditions: Flood, scale 0 to 100
Outline: as §2

[19] = system: morningglory (Ipomoea spp.); assay: Test A postemergence, morningglory; conditions: 0 to 100 scale (0 no effect, 100 complete control)
Outline: as §1

[20] = 250 g ai/ha, scale 0 to 100 (0 no effect, 100 complete control)

With `CC1(C)CC([S+]([O-])Cc2c(C(F)(F)C(F)(F)F)nc3n(c2=O)CCCS3)=NO1` (stereo not drawn) [Compound 40] the “Plant response rating, Velvetleaf” value ([1]; 125 g ai/ha) was 0, the “Plant response rating, Velvetleaf” value ([1]; 500 g ai/ha) was 0 and the “Plant response rating, Barnyardgrass” value ([2]; 31 g ai/ha, scale 0 to 100) was 0. For the same molecule, the “Plant response rating, Barnyardgrass” value ([2]; 62 g ai/ha, scale 0 to 100) was 0, the “Plant response rating, Barnyardgrass” value ([2]; 125 g ai/ha, scale 0 to 100) was 0 and the “Plant response rating, Barnyardgrass” value [2, 20] was 0. For the same molecule, the “Plant response rating, Crabgrass, Large” value ([3]; 125 g ai/ha) was 0, the “Plant response rating, Crabgrass, Large” value ([3]; 500 g ai/ha) was 40 and the “Plant response rating, Sedge, Umbrella” value ([4]; 31 g ai/ha) was 0. The “Plant response rating, Sedge, Umbrella” value ([4]; 62 g ai/ha) was 0, the “Plant response rating, Sedge, Umbrella” value ([4]; 125 g ai/ha) was 0 and the “Plant response rating, Sedge, Umbrella” value ([4]; 250 g ai/ha) was 0. The “Plant response rating, Corn” value (corn (Zea mays) [5]; 125 g ai/ha) was 0, the “Plant response rating, Corn” value (corn (Zea mays) [5]; 500 g ai/ha) was 20 and the “Plant response rating, Ducksalad” value ([6]; 31 g ai/ha) was 0. The “Plant response rating, Ducksalad” value ([6]; 62 g ai/ha) was 0, the “Plant response rating, Ducksalad” value ([6]; 125 g ai/ha) was 0 and the “Plant response rating, Ducksalad” value ([6]; 250 g ai/ha) was 0. For the same molecule, the “Plant response rating, Wheat” value ([7]; 125 g ai/ha) was 0, the “Plant response rating, Wheat” value ([7]; 500 g ai/ha) was 50 and the “Plant response rating, Foxtail, Giant” value ([8]; 125 g ai/ha) was 0. The “Plant response rating, Foxtail, Giant” value ([8]; 500 g ai/ha) was 50, the “Plant response rating, Crabgrass, Large” value ([9]; 125 g ai/ha) was 0 and the “Plant response rating, Crabgrass, Large” value ([9]; 500 g ai/ha) was 70. The “Plant response rating, Velvetleaf” value ([10]; 125 g ai/ha) was 0, the “Plant response rating, Velvetleaf” value ([10]; 500 g ai/ha) was 0 and the “Plant response rating, Pigweed” value ([11]; 125 g ai/ha) was 0. For the same molecule, the “Plant response rating, Pigweed” value ([11]; 500 g ai/ha) was 0, the “Plant response rating, Corn” value (corn (Zea mays) [12]; 125 g ai/ha) was 0 and the “Plant response rating, Corn” value (corn (Zea mays) [12]; 500 g ai/ha) was 0. The “Plant response rating, Wheat” value ([13]; 125 g ai/ha) was 0, the “Plant response rating, Wheat” value ([13]; 500 g ai/ha) was 0 and the “Plant response rating, Pigweed” value ([14]; 125 g ai/ha) was 0. The “Plant response rating, Pigweed” value ([14]; 500 g ai/ha) was 0, the “Plant response rating, Foxtail, Giant” value ([15]; 125 g ai/ha) was 0 and the “Plant response rating, Foxtail, Giant” value ([15]; 500 g ai/ha) was 80. The “Plant response rating, Barnyardgrass” value ([16]; 125 g ai/ha) was 0, the “Plant response rating, Barnyardgrass” value ([16]; 500 g ai/ha) was 60 and the “Plant response rating, Morningglory” value ([17]; 125 g ai/ha) was 0. The “Plant response rating, Morningglory” value ([17]; 500 g ai/ha) was 0, the “Plant response rating, Barnyardgrass” value ([18]; 125 g ai/ha) was 10 and the “Plant response rating, Barnyardgrass” value ([18]; 500 g ai/ha) was 70. The “Plant response rating, Rice” value (rice (Oryza sativa); 31 g ai/ha) was 0, the “Plant response rating, Rice” value (rice (Oryza sativa); 62 g ai/ha) was 0 and the “Plant response rating, Rice” value (rice (Oryza sativa); 125 g ai/ha) was 0. For the same molecule, the “Plant response rating, Rice” value (rice (Oryza sativa); 250 g ai/ha) was 0, the “Plant response rating, Morningglory” value ([19]; 125 g ai/ha) was 0 and the “Plant response rating, Morningglory” value ([19]; 500 g ai/ha) was 10.
`CCn1c(=O)c(CS(=O)(=O)C2=NOC(C)(C)C2)nc2ccccc21` [Compound 28] was tested, and the “Plant response rating, Velvetleaf” value ([1]; 125 g ai/ha) was 0, the “Plant response rating, Velvetleaf” value ([1]; 500 g ai/ha) was 0 and the “Plant response rating, Barnyardgrass” value ([2]; 31 g ai/ha, scale 0 to 100) was 0. The “Plant response rating, Barnyardgrass” value ([2]; 62 g ai/ha, scale 0 to 100) was 0, the “Plant response rating, Barnyardgrass” value ([2]; 125 g ai/ha, scale 0 to 100) was 0 and the “Plant response rating, Barnyardgrass” value [2, 20] was 0. For the same molecule, the “Plant response rating, Crabgrass, Large” value ([3]; 125 g ai/ha) was 0, the “Plant response rating, Crabgrass, Large” value ([3]; 500 g ai/ha) was 50 and the “Plant response rating, Sedge, Umbrella” value ([4]; 31 g ai/ha) was 0. The “Plant response rating, Sedge, Umbrella” value ([4]; 62 g ai/ha) was 0, the “Plant response rating, Sedge, Umbrella” value ([4]; 125 g ai/ha) was 0 and the “Plant response rating, Sedge, Umbrella” value ([4]; 250 g ai/ha) was 0. For the same molecule, the “Plant response rating, Corn” value (corn (Zea mays) [5]; 125 g ai/ha) was 0, the “Plant response rating, Corn” value (corn (Zea mays) [5]; 500 g ai/ha) was 0 and the “Plant response rating, Ducksalad” value ([6]; 31 g ai/ha) was 0. The “Plant response rating, Ducksalad” value ([6]; 62 g ai/ha) was 0, the “Plant response rating, Ducksalad” value ([6]; 125 g ai/ha) was 0 and the “Plant response rating, Ducksalad” value ([6]; 250 g ai/ha) was 0. For the same molecule, the “Plant response rating, Wheat” value ([7]; 125 g ai/ha) was 0, the “Plant response rating, Wheat” value ([7]; 500 g ai/ha) was 0 and the “Plant response rating, Foxtail, Giant” value ([8]; 125 g ai/ha) was 0. The “Plant response rating, Foxtail, Giant” value ([8]; 500 g ai/ha) was 0, the “Plant response rating, Crabgrass, Large” value ([9]; 125 g ai/ha) was 40 and the “Plant response rating, Crabgrass, Large” value ([9]; 500 g ai/ha) was 50. For the same molecule, the “Plant response rating, Velvetleaf” value ([10]; 125 g ai/ha) was 0, the “Plant response rating, Velvetleaf” value ([10]; 500 g ai/ha) was 0 and the “Plant response rating, Pigweed” value ([11]; 125 g ai/ha) was 0. The “Plant response rating, Pigweed” value ([11]; 500 g ai/ha) was 0, the “Plant response rating, Corn” value (corn (Zea mays) [12]; 125 g ai/ha) was 0 and the “Plant response rating, Corn” value (corn (Zea mays) [12]; 500 g ai/ha) was 0. The “Plant response rating, Wheat” value ([13]; 125 g ai/ha) was 0, the “Plant response rating, Wheat” value ([13]; 500 g ai/ha) was 0 and the “Plant response rating, Pigweed” value ([14]; 125 g ai/ha) was 0. The “Plant response rating, Pigweed” value ([14]; 500 g ai/ha) was 0, the “Plant response rating, Foxtail, Giant” value ([15]; 125 g ai/ha) was 0 and the “Plant response rating, Foxtail, Giant” value ([15]; 500 g ai/ha) was 20. The “Plant response rating, Barnyardgrass” value ([16]; 125 g ai/ha) was 0, the “Plant response rating, Barnyardgrass” value ([16]; 500 g ai/ha) was 10 and the “Plant response rating, Morningglory” value ([17]; 125 g ai/ha) was 0. The “Plant response rating, Morningglory” value ([17]; 500 g ai/ha) was 0, the “Plant response rating, Barnyardgrass” value ([18]; 125 g ai/ha) was 30 and the “Plant response rating, Barnyardgrass” value ([18]; 500 g ai/ha) was 40. For the same molecule, the “Plant response rating, Rice” value (rice (Oryza sativa); 31 g ai/ha) was 0, the “Plant response rating, Rice” value (rice (Oryza sativa); 62 g ai/ha) was 0 and the “Plant response rating, Rice” value (rice (Oryza sativa); 125 g ai/ha) was 0. The “Plant response rating, Rice” value (rice (Oryza sativa); 250 g ai/ha) was 0, the “Plant response rating, Morningglory” value ([19]; 125 g ai/ha) was 0 and the “Plant response rating, Morningglory” value ([19]; 500 g ai/ha) was 0.
